The record followed here is paper PMC11963559, “Identification of novel thiazole derivatives as flaviviral protease inhibitors effective against Dengue (DENV2) and Japanese encephalitis viruses” (Antimicrobial Agents and Chemotherapy, 2025).

One data set concerns the target T1, DENV2 NS2B–NS3 protease (Dengue virus type 2, UniProt P14340).
T1 construct: Activity of recombinant dengue 2 virus NS3 protease in the presence of a truncated NS2B co-factor; The N-terminal domain of NS3 contains a highly conserved protease-active core; made in house; host or cells: Escherichia coli BL21(DE3)
The experiment in a line: NS2B–NS3 protease steady-state kinetics and mode of inhibition. The following applies: for mode of inhibition: both Km and Vmax reduced, Lineweaver–Burk plot; for Vmax: increasing substrate concentrations. The format is biochemical. How it is done:
As 3au and 3aq compounds emerged as the two most promising candidates, we characterized their NS2B–NS3 inhibitory activity in greater detail using the previously mentioned DENV NS2B–NS3 protease assay (Fig. 3D) ([39], [41]). Experiments were performed to determine the kinetic parameters, inhibition constants, and inhibition mechanisms of these compounds. Enzymatic activity and corresponding reaction velocity were measured with various substrate concentrations either in presence of the vehicle control or two different concentrations of compounds. Several inhibitory mechanisms, including competitive, uncompetitive, and mixed/non-competitive mechanisms, were explored for each compound. […] The double reciprocal plot (Lineweaver–Burk plot) ( Fig. 5C and D) also validates the mode of enzymatic inhibition against DENV NS2B–NS3 protease.
The selected compounds were analyzed using in vitro protease assays performed in black 96-well plates. Standard reaction mixtures (60 µL) containing 50 mM Tris·HCl (pH 8.5), 1 mM CHAPS, 20% glycerol, 10 nM DENV2 NS2B–NS3 protease, 10 µM inhibitor (dissolved in DMSO) or DMSO, and 10.0 µM tetra-peptide substrate trifluoroacetate-Nle-Lys-Arg-Arg-AMC (ALFA Chemicals) were added to the reaction mixture and incubated for 1 h at room temperature. All assays were performed in triplicate. The release of free AMC was measured using a Varioskan LUX multimode microplate reader (Thermo Fisher Scientific) at excitation and emission wavelengths of 380 and 460 nm, respectively. Control fluorescence values obtained in the absence of inhibitors were considered 100%, and those obtained in the presence of inhibitors were calculated as the percentage of inhibition of the control using Microsoft Excel and plotted using Origin Pro 2023b. The background AMC in the absence of protease was subtracted before data analysis. Further, protease assay was done using different concentration of the compounds (1, 10, and 100 µM) to evaluate the IC50 for the in vitro assay. IC50 curves were fitted and determined by fitting the nonlinear equation in Origin2023b software. A similar approach was used to analyze the enzymatic kinetics of protease inhibition. The reaction progress was monitored by the release of free aminomethylcoumarin (AMC), as previously described. The substrate was incubated with or without the inhibitor in the aforementioned reaction buffer in the presence of varying concentrations of the substrate. The reactions were initiated by the addition of the NS2B–NS3 protease. Protease activity was monitored for 1 h based on the initial rate of increase in fluorescence intensity at 460 nm, with an excitation wavelength of 380 nm. The results were analyzed using Origin Pro 2023b and the Michaelis–Menten equation to obtain the apparent Michaelis–Menten constants and maximal velocities. All assays were performed in triplicate. For each tested compound, […] different concentrations of the inhibitor (0, 10, and 25 µM) were used at various concentrations (0–250 μM) of the substrate. The mechanism of inhibition was determined by observing the deviations in the apparent Km and Vmax values.

Data set [1] can be described thus: MTT cytotoxicity assay in BHK-21 cells. The class given is cell-based, hamster. As to conditions: hamster. As to the method: (§1) First, cytotoxic impact of these compounds was evaluated using MTT assay. […] Subsequently, we evaluated the effectiveness of these compounds in inhibiting DENV2 replication. BHK-21 cells were infected with the virus in presence of increasing concentration of these compounds, and harvested at 24 hpi. The virus replication rate was assessed by quantifying the copy number of viral genomic RNA using quantitative real-time PCR (qRT-PCR).
(§2) The MTT assay was performed to determine cellular metabolic activity as an indicator of cell viability, proliferation, and cytotoxicity. Thus, to determine whether these compounds had any toxic effects on cellular viability, an MTT assay was performed following the protocol described previously by Mosmann (1983) ([55], [56]). Briefly, BHK-21 and SH-SHY5Y cells were seeded into 96-well plates at a density of 20,000 cells/well. Almost 16–18 h later, the cells were treated with different concentrations of the compounds (3au and 3aq) for 24 h at 37 °C in 5% CO2. Thereafter, the medium was aspirated, and 100 µL of MTT reagent (5 mg/mL, SRL) in PBS was added to the cells and incubated for 3 h at 37 °C. Formazan crystals were formed in each well and resuspended in 100 µL of dimethyl sulfoxide (DMSO) (Sigma, USA) at room temperature for 20 min to completely dissolve the crystals. The absorbance of the solution in a 96-well plate was measured at 595 nm using a microplate reader (Epoch 2; BioTek Instruments). Each experiment was performed in triplicate, and the percentage of cell viability was determined as the ratio of the absorbance values of the experimental samples to the control solvent (DMSO) on the same plate.
(Tetrazolium dyes change colour on reduction, which living cells bring about.)

The subject of the next data set is BHK-21 cells. The experiment in a line: MTT cytotoxicity assay in BHK-21 cells. The class given is cell-based, hamster. The following applies: 24 h. How it is done:
as §1, §2

For another data set, the system named is JEV. Put plainly: JEV progeny virus titer in BHK-21 supernatant (TCID50 assay). The class given is cell-based. The following applies: BHK-21, read-out: IC50 of viral titer reduction (called TCID50 in the source). As to the method:
To this end, we assessed the antiviral activity of shortlisted compounds by evaluating their ability to inhibit progeny virus production. BHK-21 cells were infected with DENV2 and JEV (MOI: 0.1) in the presence of different concentrations of 3aq or 3au or with DMSO, and viral titer was determined in the supernatants harvested at 18 hpi. Compound 3aq caused the maximum reduction of viral titer showing TCID50 of 5.18 ± 0.87 and 2.29 ± 0.50 µM against DENV2 and JEV, respectively (Fig. 8B and D).
During DENV2 and JEV infection, the viral supernatant was collected and used in the TCID50 assay to determine the viral titer. Then, 3 × 10^4 BHK-21 cells per well were seeded in a 96-well cell culture microtiter plate the day before titration. The virus stock was diluted with infection media (DMEM + 2% FBS) to attain virus dilutions of 1 × 10^−2 to 6.4 × 10^−7 in 12 parallels, with the last column of the 96-well plate serving as virus-free cell control. On the day of the assay, when the cell had reached 90%–95% confluency, the growth medium was aspirated using a multichannel pipette, and 100 µL of virus inoculum of different dilutions was transferred to each well, keeping the last well only in infection media without virus. The cells were then incubated at 37 °C in a humidified 5% CO2 chamber. […] TCID50 was calculated using the Spearman and Karber methods.

T1 sequence (P14340 1476-1653): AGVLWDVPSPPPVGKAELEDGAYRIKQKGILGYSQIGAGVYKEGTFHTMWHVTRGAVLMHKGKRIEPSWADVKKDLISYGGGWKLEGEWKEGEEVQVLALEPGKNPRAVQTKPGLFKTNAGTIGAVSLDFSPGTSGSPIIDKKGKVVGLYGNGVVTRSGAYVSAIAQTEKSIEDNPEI
T1 sequence (P14340 1398-1437): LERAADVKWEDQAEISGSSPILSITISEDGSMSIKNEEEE

As for `COc1ccc(-c2csc(N/N=C(\C)c3cc(O)cc(O)c3)n2)cc1` [3au], the mode of inhibition result at DENV2 NS2B–NS3 protease is on record as “uncompetitive”. In addition, the Vmax at DENV2 NS2B–NS3 protease (inhibitor 10 μM) was 38.9 ± 1.9; at DENV2 NS2B–NS3 protease (inhibitor 25 μM) it was 21.4 ± 0.7. Further, the CC50 – broadly, the concentration that lowers cell viability or growth by half – at 24 h in data set [1] was 76.6 ± 2.74 µM. Besides, the non-toxic concentration result with BHK-21 cells is “up to 25 µM”. Further, the IC50 (as a rule, the point on the concentration scale where inhibition reaches its midpoint) in the data set with JEV worked out at 2.72 ± 0.24 µM.
With `COc1ccc(-c2csc(N/N=C(\C)c3ccc(O)cc3)n2)cc1` [3aq], on DENV2 NS2B–NS3 protease, the mode of inhibition result is reported as “uncompetitive”. The Vmax at DENV2 NS2B–NS3 protease (inhibitor 10 μM) is listed as 52.1 ± 3.3; on DENV2 NS2B–NS3 protease (inhibitor 25 μM), 18.4 ± 0.9. The midpoint of cytotoxicity in data set [1], the CC50 at 24 h, lay at 82 ± 2.38 µM. Moreover, the non-toxic concentration entry in the data set with BHK-21 cells was “up to 25 µM”. For the same molecule, the IC50 in the data set on JEV came out at 2.29 ± 0.5 µM.
